Columns and labels:
[1] = target: T1, GSPT1 ubiquitylation by CRBN (Homo sapiens, UniProt P15170+Q96SW2); conditions: Matyskiela et al. Nature 535, 252-257 (2016); cited from earlier work
Target sequence in this assay (P15170 whole entry, the tested form may be a part): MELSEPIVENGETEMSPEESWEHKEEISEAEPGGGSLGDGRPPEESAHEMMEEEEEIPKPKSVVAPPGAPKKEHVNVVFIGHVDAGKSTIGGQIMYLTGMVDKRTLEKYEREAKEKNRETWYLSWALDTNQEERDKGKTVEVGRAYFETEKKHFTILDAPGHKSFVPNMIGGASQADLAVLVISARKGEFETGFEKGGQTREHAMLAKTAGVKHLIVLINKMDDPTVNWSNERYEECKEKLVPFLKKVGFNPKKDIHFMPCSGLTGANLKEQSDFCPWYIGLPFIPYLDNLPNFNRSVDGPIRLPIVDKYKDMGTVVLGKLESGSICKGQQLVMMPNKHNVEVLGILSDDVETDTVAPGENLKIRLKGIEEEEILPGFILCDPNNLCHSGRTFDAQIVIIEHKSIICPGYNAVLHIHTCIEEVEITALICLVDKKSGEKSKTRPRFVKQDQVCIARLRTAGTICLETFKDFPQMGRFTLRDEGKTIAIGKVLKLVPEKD
Target sequence in this assay (Q96SW2 whole entry, the tested form may be a part): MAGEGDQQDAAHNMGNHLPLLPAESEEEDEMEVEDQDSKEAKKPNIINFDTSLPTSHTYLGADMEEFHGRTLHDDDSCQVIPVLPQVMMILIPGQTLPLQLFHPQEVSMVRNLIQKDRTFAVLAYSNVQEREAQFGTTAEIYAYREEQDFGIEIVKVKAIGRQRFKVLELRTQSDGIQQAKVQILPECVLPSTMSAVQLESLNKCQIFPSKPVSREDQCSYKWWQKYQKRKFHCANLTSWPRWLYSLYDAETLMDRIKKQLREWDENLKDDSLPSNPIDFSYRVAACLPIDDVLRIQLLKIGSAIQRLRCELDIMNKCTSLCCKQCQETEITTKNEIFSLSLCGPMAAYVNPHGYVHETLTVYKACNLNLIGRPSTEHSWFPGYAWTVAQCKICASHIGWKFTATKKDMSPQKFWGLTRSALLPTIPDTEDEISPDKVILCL
Target sequence in this assay (Q16531 whole entry partner, the tested form may be a part): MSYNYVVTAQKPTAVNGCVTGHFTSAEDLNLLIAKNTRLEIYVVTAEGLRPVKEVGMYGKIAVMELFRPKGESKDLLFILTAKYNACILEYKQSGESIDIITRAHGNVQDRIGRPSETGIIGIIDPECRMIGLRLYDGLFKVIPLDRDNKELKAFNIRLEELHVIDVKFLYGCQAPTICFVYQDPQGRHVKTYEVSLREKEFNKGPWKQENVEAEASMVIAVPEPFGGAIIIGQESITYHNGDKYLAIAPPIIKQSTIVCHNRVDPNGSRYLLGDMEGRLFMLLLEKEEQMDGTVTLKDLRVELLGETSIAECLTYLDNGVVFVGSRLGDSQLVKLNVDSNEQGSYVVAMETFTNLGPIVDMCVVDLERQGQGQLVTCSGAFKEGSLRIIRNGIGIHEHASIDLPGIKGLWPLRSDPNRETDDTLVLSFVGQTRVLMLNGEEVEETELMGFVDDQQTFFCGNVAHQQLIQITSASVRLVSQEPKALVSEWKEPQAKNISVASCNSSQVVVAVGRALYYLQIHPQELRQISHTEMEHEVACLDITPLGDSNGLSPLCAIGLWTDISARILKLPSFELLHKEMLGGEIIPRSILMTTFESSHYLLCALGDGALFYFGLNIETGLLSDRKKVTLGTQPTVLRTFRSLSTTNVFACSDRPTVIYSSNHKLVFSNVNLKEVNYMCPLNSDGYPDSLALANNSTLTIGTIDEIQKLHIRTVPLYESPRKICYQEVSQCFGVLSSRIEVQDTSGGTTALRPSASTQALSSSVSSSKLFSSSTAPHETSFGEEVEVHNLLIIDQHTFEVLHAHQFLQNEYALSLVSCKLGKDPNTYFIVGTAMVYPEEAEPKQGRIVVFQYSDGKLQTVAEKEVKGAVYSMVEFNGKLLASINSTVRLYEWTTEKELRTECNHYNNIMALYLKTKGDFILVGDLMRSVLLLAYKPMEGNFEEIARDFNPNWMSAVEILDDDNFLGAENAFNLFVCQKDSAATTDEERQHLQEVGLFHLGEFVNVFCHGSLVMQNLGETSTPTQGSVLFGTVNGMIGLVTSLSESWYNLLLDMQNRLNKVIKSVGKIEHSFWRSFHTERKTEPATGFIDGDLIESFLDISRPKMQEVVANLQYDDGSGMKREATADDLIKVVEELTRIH

[2] = target: T1, GSPT1 ubiquitylation by CRBN; test: split-CAT selective growth assay, GSPT1 as ubiquitylation target of CRBN; format: cell-based; design: expressed in transfected cells; host or cells: E. coli; conditions: for growth of E. coli that express GSPT1 (ubiquitylation dependent growth, OD600): split-CAT system, Cereblon-E2 (Ubc4) fusion, LB with chloramphenicol, 96 and 384 well plates
Description: (§1) Activity assays with split-CAT system: Vectors containing the split-CAT ubiquitylation system were co-transformed into E. coli and grew in the presence of the relevant antibiotics (e.g. kanamycin and streptomycin). Overnight culture was harvested and the media was replaced with fresh LB containing 8 μg/ml chloramphenicol. The culture was diluted to O.D.600=0.2 and dispended to a 96 or 384 well plate supplemented with potential small molecule drugs or DMSO only. The plate was placed in a shaker/incubator/reader and OD600 was continuously monitored during the growth.
(§2) This procedure was used to read the ubiquitylation dependent growth of IKZF1, IKZF3, CK1a and GSPT1.
(§3) In a first experiment, IKZF1 (Q13422) and GSPT1 (P15170) were analyzed as potential ubiquitylation targets. These targets were coexpressed with C-CAT-Ub and E1 and the Cereblon-E2 (Ubc4) fusion. […] These assays were performed in 96 and 384 well plates.
In a third experiment, GSPT1 was analyzed as a potential ubiquitylation target. It was expressed in-frame upstream to the N-CAT fragment. The target was co-expressed with C-CAT-Ub, wheat E1 and Cereblon-E2 (Ubc4) fusion. […] These assays were performed in 96 and 384 well plates.
Target sequence in this assay (P15170 whole entry, the tested form may be a part): as the sequence (P15170 whole entry, the tested form may be a part) above
Target sequence in this assay (Q96SW2 whole entry, the tested form may be a part): as the sequence (Q96SW2 whole entry, the tested form may be a part) above
Target sequence in this assay (P15731 whole entry partner, the tested form may be a part): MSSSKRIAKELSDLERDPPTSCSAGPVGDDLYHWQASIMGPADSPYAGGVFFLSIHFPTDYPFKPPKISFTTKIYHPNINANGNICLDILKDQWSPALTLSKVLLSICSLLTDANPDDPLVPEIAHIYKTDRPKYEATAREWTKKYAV

[3] = target: T2, IKZF1 ubiquitylation by CRBN (Homo sapiens, UniProt Q13422+Q96SW2); test: split-CAT selective growth assay, IKZF1 as ubiquitylation target of CRBN; format: cell-based
T2 construct: expressed in transfected cells; host or cells: E. coli
Description: as §1, §2, §3

[4] = target: T3, CK1α ubiquitylation by CRBN (Homo sapiens, UniProt P48729+Q96SW2); test: split-CAT selective growth assay, CK1a as ubiquitylation target of CRBN; format: cell-based; conditions: split-CAT system, Cereblon-E2 (Ubc4) fusion, chloramphenicol, 96 and 384 well plates
T3 construct: expressed in transfected cells; host or cells: E. coli
Description: as §1, §2
It was expressed in-frame upstream to the N-CAT fragment. […] These assays were performed in 96 and 384 well plates.

T2 sequence (Q13422 whole entry): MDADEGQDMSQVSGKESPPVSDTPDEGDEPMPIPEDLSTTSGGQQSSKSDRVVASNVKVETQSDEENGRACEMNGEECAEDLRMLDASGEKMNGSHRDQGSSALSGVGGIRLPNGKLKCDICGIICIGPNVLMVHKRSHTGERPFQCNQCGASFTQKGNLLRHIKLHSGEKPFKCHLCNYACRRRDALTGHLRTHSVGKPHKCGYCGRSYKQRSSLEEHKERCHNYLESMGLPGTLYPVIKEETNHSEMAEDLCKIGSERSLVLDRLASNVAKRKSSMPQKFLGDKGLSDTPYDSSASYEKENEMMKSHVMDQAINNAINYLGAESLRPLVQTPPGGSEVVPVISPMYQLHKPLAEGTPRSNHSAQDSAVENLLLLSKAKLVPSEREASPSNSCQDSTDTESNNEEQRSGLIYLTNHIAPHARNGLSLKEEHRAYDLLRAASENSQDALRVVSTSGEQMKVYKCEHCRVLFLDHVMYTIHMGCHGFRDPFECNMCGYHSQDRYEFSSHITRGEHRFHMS
T2 sequence (Q96SW2 whole entry): as the sequence (Q96SW2 whole entry, the tested form may be a part) above
T2 sequence (P15731 whole entry partner): as the sequence (P15731 whole entry partner, the tested form may be a part) above
T3 sequence (P48729 whole entry, the tested form may be a part): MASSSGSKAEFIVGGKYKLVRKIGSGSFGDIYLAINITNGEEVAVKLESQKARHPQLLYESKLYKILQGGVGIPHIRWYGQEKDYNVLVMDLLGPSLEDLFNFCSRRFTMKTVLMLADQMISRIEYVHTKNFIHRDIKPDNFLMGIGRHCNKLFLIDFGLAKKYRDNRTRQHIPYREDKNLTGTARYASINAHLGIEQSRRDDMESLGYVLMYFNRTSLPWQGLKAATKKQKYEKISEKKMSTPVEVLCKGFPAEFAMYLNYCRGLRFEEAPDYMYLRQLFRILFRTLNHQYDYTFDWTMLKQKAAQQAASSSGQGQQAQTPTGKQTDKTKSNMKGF
T3 sequence (Q96SW2 whole entry, the tested form may be a part): as the sequence (Q96SW2 whole entry, the tested form may be a part) above
T3 sequence (P15731 whole entry partner, the tested form may be a part): as the sequence (P15731 whole entry partner, the tested form may be a part) above

growth of E. coli that express GSPT1 (ubiquitylation dependent growth, OD600) [2]	shape of dose response curve (growth), IKZF1 target ([3]; increased concentration of drug, split-CAT selection system)	growth of E. coli that express IKZF1 (ubiquitylation dependent growth, OD600) ([3]; split-CAT system, Cereblon-E2 (Ubc4) fusion, LB with chloramphenicol, 96 and 384 well plates)	growth of E. coli that express CK1a (ubiquitylation dependent growth, OD600) [4]	growth of E. coli that express GSPT1 (ubiquitylation dependent growth, OD600) ([2]; listed as TLD)	Compound	CRBN dependent ubiquitylation of GSPT1 in the presence of the drug [1]	shape of dose response curve (growth), GSPT1 target ([2]; increased concentration of drug, selective conditions with chloramphenicol)
significantly promoted the growth					Cc1ccc(NC(=O)NCc2ccc3c(c2)CN(C2CCC(=O)NC2=O)C3=O)cc1Cl (stereo not shown) [CC-885]	undergo CRBN dependent ubiquitylation	classical bell-shaped activity (growth) curve
	optimum characteristic response	significantly promoted the growth	significantly promoted the growth	not promoted	O=C1CCC(N2C(=O)c3ccccc3C2=O)C(=O)N1 (stereo not shown) [Thalidomide]		

Reference: patent US20210356467A1, “SYSTEMS AND METHOD FOR SCREENING SMALL MOLECULES OF INTEREST” (TECHNOLOGY INNOVATION MOMENTUM FUND (ISRAEL) LIMITED …, priority 2018, published 2021)
